The subject of one data set is F-VIII and PA. To be noted: mammals; literature; cited from earlier work.
Another data set concerns F-VIII. To be noted: cited from earlier work.
For data set [1], the system named is anesthetized rats. In words: Pressor effect by intravenous injection into anesthetized rats. The data set is classed as in vivo, rat. To be noted: for Pressor Potencies (peak): rats, mean. How it is done:
(§1) The vasopressin analogs of this invention were tested for antidiuretic and pressor effects by intravenous injection into anesthetized rats using techniques described in Cort, J. H., Schuck, O., Stribrna, J. Skopkova, J., Jost. K., Mulder, J. L., Kidney Internat. 8:292,1975. The increase in Factor VIII after administration were analyzed in male canine citrated plasma. The Factor VIII were estimated by both the classical clotting assay (F-VIII(C)) and by radioimmunoassay (F-VIII(RIA)), both described in Prowse, C. V., Sas, G., Gader, A. M. A., Cort, J. H., Cash, J. D., Brit. H. Haematol. 41:437, 1979. The vasopressin analogs are suitable for administration to mammals by intravenous or subcutaneous injection containing 100 μg to 1 mg peptide/ml. The intravenous or subcutaneous doses would be in the range of 0.02 to 1.0 μg/kg. The intranasal dose range would be ten times the former dose.
(§2) The vasopressin analogs were injected intravenously into normal male dogs anesthetized with sodium pentothal. Blood was withdrawn from each dog after 30, 60 and 120 minutes and analyzed for F-VIII. Rats were also rested for antidiuretic and pressor activity due to the vasopressin analogs of this invention.

For data set [2], the system named is Factor VIII. Nature of the data set: Factor VIII radioimmunoassay (F-VIII(RIA)) on blood of dogs after intravenous injection. The data set is classed as in vivo. To be noted: dog, i.v.; for F-VIII 30' (RIA): 30 minutes; for F-VIII 60' (RIA): 60 minutes; for F-VIII 120' (RIA): 120 minutes. Here is the method:
(§3) K., Mulder, J. L., Kidney Internat. 8:292,1975. The increase in Factor VIII after administration were analyzed in male canine citrated plasma. The Factor VIII were estimated by both the classical clotting assay (F-VIII(C)) and by radioimmunoassay (F-VIII(RIA)), both described in […]., Cort, J. H., Cash, J. D., Brit. H. Haematol. 41:437, 1979. […] The intravenous or subcutaneous doses would be in the range of 0.02 to 1.0 μg/kg. The intranasal dose range would be ten times the former dose. […] The compounds from Examples 4-8 were tested by intravenously injecting the compounds in physiological saline into a normal dog which was anesthetized using sodium pentothal. Blood samples were withdrawn from each dog after 30, 60 and 120 minutes and tested. […] The F-VIII factor level was also determined by radioimmunoassay(RIA). The results of these tests are reported in Table I. Desmopressin (10 μg/kg) was used as a reference injection peptide.

Data set [3] relates to Factor VIII. In words: Factor VIII classical clotting assay (F-VIII(C)) on blood of dogs after intravenous injection. Type of data set: in vivo. The following applies: dog, i.v., pre-injection blood = 100%; for F-VIII 30' (c): 30 minutes; for F-VIII 60' (c): 60 minutes; for F-VIII 120' (c): 120 minutes. How it is done: as §3
Data set [4] has as its system anesthetized rats. Nature of the data set: Antidiuretic effect by intravenous injection into anesthetized rats. The data set is classed as in vivo, rat. The following applies: for Antidiuretic Potencies (peak): rats, mean. How it is done:
as §1, §2

Setting [5] is: 5 μg/kg, hemophiliac dog plasma = 0%.

Where a SMILES comes first, the peptide text is derived from it. Bridges are numbered along the chain shown (N, C = ends). [ ]: non-standard residue; d: D form. Mpa = O=C(O)CCS

Consider `NC(=O)CC[C@@H]1NC(=O)[C@H](Cc2ccccc2)NC(=O)[C@H](Cc2ccc(O)cc2)NC(=O)[C@@H](N)CSSC[C@@H](C(=O)N2CCC[C@H]2C(=O)N[C@@H](CCCN=C(N)N)C(=O)NCC(N)=O)NC(=O)[C@H](CC(N)=O)NC1=O` [vasopressin], for which, in the data set on F-VIII and PA, the “effect on blood levels of F-VIII and PA” value is “can increase the blood levels of both PA and F-VIII”.

In the case of `NC(=O)CC[C@@H]1NC(=O)[C@H](Cc2ccccc2)NC(=O)[C@H](Cc2ccc(O)cc2)NC(=O)CCSSC[C@@H](C(=O)N2CCC[C@H]2C(=O)N[C@H](CCCN=C(N)N)C(=O)NCC(N)=O)NC(=O)[C@H](CC(N)=O)NC1=O` [Desmopressin, 1-desamino-[8-D-ARG]-vasopressin, reference compound], in the data set on F-VIII and PA, the “effect on blood levels of F-VIII and PA” value was “highly potent and prolonged effects on F-VIII and PA release”. For the same molecule, the “effect on low F-VIII levels in patients” value in the data set on F-VIII (hemophilia A and B, von Willebrand's disease, literature) is “increases low levels of F-VIII toward normal”. In addition, in the data set with F-VIII (human, in vivo), the “antidiuretic side effect in clinical use” value was “undesired water retention by the patients”. Further, in the data set on anesthetized rats [1], the pressor activity entry was “less than 0.2 IU/mg” and the “Pressor Potencies (peak)” value was determined as 0.15 IU/mg. Moreover, in the data set with Factor VIII [2] (10 μg/kg), the “F-VIII 30' (RIA)” value is given as 126%, the “F-VIII 60' (RIA)” value stood at 134% and the “F-VIII 120' (RIA)” value is 164%. Besides, in the data set with Factor VIII [3] (10 μg/kg), the “F-VIII 30' (c)” value was 220%, the “F-VIII 60' (c)” value worked out at 250% and the “F-VIII 120' (c)” value is on record as 210%. Moreover, in the data set with anesthetized rats [4], the antidiuretic activity result is given as “more than 1000 IU/mg” and the “Antidiuretic Potencies (peak)” value worked out at 1100 IU/mg.

As for arginine-vasotocin, in the data set on F-VIII and PA, the “effect on blood levels of F-VIII and PA” value is “far less active”.

Take “(1-desamino-6-monocarba[9-D-Ala-NH2 ]-arginine)-vasopressin [Example 7]”: in the data set on anesthetized rats [1], the “Pressor Potencies (peak)” value was 0.18 IU/mg. Besides, in the data set with Factor VIII [2] (5 μg/kg), the “F-VIII 30' (RIA)” value was 140%, the “F-VIII 60' (RIA)” value turned out to be 150% and the “F-VIII 120' (RIA)” value is 155%. Moreover, in the data set with Factor VIII [2] (10 μg/kg), the “F-VIII 30' (RIA)” value was 125%, the “F-VIII 60' (RIA)” value is given as 165% and the “F-VIII 120' (RIA)” value was determined as 180%. The “F-VIII 30' (c)” value with Factor VIII [3] (setting [5]) is 145%. In the data set with Factor VIII [3] (5 μg/kg), the “F-VIII 60' (c)” value came out at 190% and the “F-VIII 120' (c)” value is 210%. Further, in the data set with Factor VIII [3] (10 μg/kg), the “F-VIII 30' (c)” value stood at 240%, the “F-VIII 60' (c)” value amounted to 255% and the “F-VIII 120' (c)” value was determined as 266%. Besides, the “Antidiuretic Potencies (peak)” value in the data set on anesthetized rats [4] is 1.9 IU/mg.

For “angiotensin II (DRVYIHPF; Angiotensin-2; UniProt P01019 25-32, looked up) [other pressor substance]”, the “effect on blood levels of F-VIII and PA” value in the data set on F-VIII and PA is “no effect on increasing F-VIII and PA in blood”.

As for `CC[C@H](C)[C@@H]1NC(=O)[C@H](Cc2ccc(O)cc2)NC(=O)[C@@H](N)CSSC[C@@H](C(=O)N2CCC[C@H]2C(=O)N[C@@H](CC(C)C)C(=O)NCC(N)=O)NC(=O)[C@H](CC(N)=O)NC(=O)[C@H](CCC(N)=O)NC1=O` [oxytocin], the “effect on blood levels of F-VIII and PA” value in the data set on F-VIII and PA was “no effect on increasing F-VIII and PA in blood”.

For the molecule `C[C@@H](NC(=O)[C@H](CCCNC(=N)N)NC(=O)[C@@H]1CCCN1C(=O)[C@@H]1CSSC[C@H](N)C(=O)N[C@@H](Cc2ccc(O)cc2)C(=O)N[C@@H](Cc2ccccc2)C(=O)N[C@@H](CCC(N)=O)C(=O)N[C@@H](CC(N)=O)C(=O)N1)C(N)=O` [Example 5, ([9-D-Ala-NH2]-arginine-vasopressin], in the data set on anesthetized rats [1], the “Pressor Potencies (peak)” value came out at 0.10 IU/mg. In addition, in the data set with Factor VIII [2] (5 μg/kg), the “F-VIII 30' (RIA)” value was 110%, the “F-VIII 60' (RIA)” value came to 107% and the “F-VIII 120' (RIA)” value is listed as 98%. Further, in the data set on Factor VIII [2] (10 μg/kg), the “F-VIII 30' (RIA)” value was found to be 115%, the “F-VIII 60' (RIA)” value was found to be 110% and the “F-VIII 120' (RIA)” value is recorded as 115%. The “F-VIII 30' (c)” value with Factor VIII [3] (setting [5]) was 115%. Besides, in the data set with Factor VIII [3] (5 μg/kg), the “F-VIII 60' (c)” value came to 120% and the “F-VIII 120' (c)” value is on record as 105%. Also, in the data set with Factor VIII [3] (10 μg/kg), the “F-VIII 30' (c)” value came out at 225%, the “F-VIII 60' (c)” value worked out at 128% and the “F-VIII 120' (c)” value came to 115%. The “Antidiuretic Potencies (peak)” value in the data set with anesthetized rats [4] is 1.2 IU/mg.

Turning to `CNCC(O)c1ccc(O)c(O)c1` (stereo not drawn) [adrenaline], the “effect on blood levels of F-VIII and PA” value in the data set with F-VIII and PA is “can increase the blood levels of both PA and F-VIII”.

As for `C[C@H](NC(=O)[C@@H](CCCNC(=N)N)NC(=O)[C@@H]1CCCN1C(=O)[C@@H]1CSSCCC(=O)N[C@@H](Cc2ccc(O)cc2)C(=O)N[C@@H](Cc2ccccc2)C(=O)N[C@@H](CCC(N)=O)C(=O)N[C@@H](CC(N)=O)C(=O)N1)C(N)=O` [Example 8, (1-desamino-[8-D-Arg, 9-Ala-NH2]arginine)-vasopressin] ([Mpa]YFQNCP[dR]A-NH2; disulfide 1-6), the “Pressor Potencies (peak)” value with anesthetized rats [1] is 0.09 IU/mg. In the data set on Factor VIII [2] (10 μg/kg), the “F-VIII 30' (RIA)” value amounted to 120%, the “F-VIII 60' (RIA)” value stood at 145% and the “F-VIII 120' (RIA)” value stood at 155%. In the data set on Factor VIII [3] (10 μg/kg), the “F-VIII 30' (c)” value is recorded as 155%, the “F-VIII 60' (c)” value turned out to be 150% and the “F-VIII 120' (c)” value is on record as 140%. In addition, the “Antidiuretic Potencies (peak)” value in the data set on anesthetized rats [4] came out at 2.23 IU/mg.

Turning to `C[C@@H](NC(=O)[C@H](CCCNC(=N)N)NC(=O)[C@@H]1CCCN1C(=O)[C@@H]1CSSCCC(=O)N[C@@H](Cc2ccc(O)cc2)C(=O)N[C@@H](Cc2ccccc2)C(=O)N[C@@H](CCC(N)=O)C(=O)N[C@@H](CC(N)=O)C(=O)N1)C(N)=O` [Example 4, 1-Desamino-[9-D-Ala-NH]-arginine-vasopressin] ([Mpa]YFQNCPR[dA]-NH2; disulfide 1-6), the “Pressor Potencies (peak)” value in the data set with anesthetized rats [1] is 0.15 IU/mg. Besides, in the data set with Factor VIII [2] (5 μg/kg), the “F-VIII 30' (RIA)” value is listed as 115%, the “F-VIII 60' (RIA)” value is listed as 125% and the “F-VIII 120' (RIA)” value worked out at 130%. In the data set with Factor VIII [2] (10 μg/kg), the “F-VIII 30' (RIA)” value is on record as 124%, the “F-VIII 60' (RIA)” value was 132% and the “F-VIII 120' (RIA)” value turned out to be 163%. Besides, the “F-VIII 30' (c)” value in the data set with Factor VIII [3] (setting [5]) is on record as 120%. In the data set on Factor VIII [3] (5 μg/kg), the “F-VIII 60' (c)” value is 160% and the “F-VIII 120' (c)” value is 170%. In the data set with Factor VIII [3] (10 μg/kg), the “F-VIII 30' (c)” value turned out to be 230%, the “F-VIII 60' (c)” value is given as 250% and the “F-VIII 120' (c)” value stood at 240%. In the data set on anesthetized rats [4], the “Antidiuretic Potencies (peak)” value worked out at 1.8 IU/mg.

Consider “1-desamino-6-monocarba-[8 -D-Arg]-vasopressin [dCDAVP]”, for which the “effect on blood levels of F-VIII and PA” value in the data set on F-VIII and PA was “highly potent and prolonged effects on F-VIII and PA release”.

The values above are taken from US4285858A, “Vasopressin analogs” (Mt. Sinai School of Medicine of the City University of N.Y., priority 1979, dated 1981).
